# Results reported in ChEMBL document CHEMBL1123774, “Peptide quantitative structure-activity relationships, a multivariate approach” (J Med Chem, 1987).
# Peptide text beside a SMILES is read from it.
# Assay: Bradykinin potentiating activity was determined as the activity index by PLS model
row,Structure (SMILES),Log RAI
1,CC(C)[C@H](N)C(=O)N[C@@H](CCC(=O)O)C(=O)N[C@@H](Cc1c[nH]c2ccccc12)C(=O)N[C@@H](C)C(=O)N[C@@H](CCCCN)C(=O)O (H-VEWAK-OH),2.73
2,CC(C)[C@H](N)C(=O)N[C@@H](C)C(=O)N[C@@H](Cc1c[nH]c2ccccc12)C(=O)N[C@@H](C)C(=O)N[C@@H](CCCCN)C(=O)O (H-VAWAK-OH),1.45
3,C[C@H](N)C(=O)N[C@@H](C)C(=O)N[C@@H](Cc1c[nH]c2ccccc12)C(=O)N[C@@H](C)C(=O)N[C@@H](C)C(=O)O (H-AAWAA-OH),0.75
4,CC(C)[C@H](N)C(=O)N[C@@H](CCC(=O)O)C(=O)N[C@@H](Cc1ccccc1)C(=O)N[C@@H](C)C(=O)N[C@@H](CCCCN)C(=O)O (H-VEFAK-OH),1.57
5,NC(N)=NCCC[C@H](NC(=O)[C@H](Cc1ccccc1)NC(=O)[C@@H]1CCCN1C(=O)[C@H](CO)NC(=O)[C@@H](N)Cc1ccccc1)C(=O)O (H-FSPFR-OH),0.64
6,C[C@H](NC(=O)[C@H](Cc1c[nH]c2ccccc12)NC(=O)[C@H](CCCCN)NC(=O)[C@@H](N)CCC(=O)O)C(=O)N1CCC[C@H]1C(=O)O (H-EKWAP-OH),1.3
7,CC(C)[C@H](N)C(=O)N[C@@H](CCC(=O)O)C(=O)N[C@@H](C)C(=O)N[C@@H](C)C(=O)N[C@@H](CCCCN)C(=O)O (H-VEAAK-OH),0.51
8,CC(C)[C@H](N)C(=O)N[C@@H](CCC(=O)O)C(=O)N[C@@H](CO)C(=O)N[C@@H](CO)C(=O)N[C@@H](CCCCN)C(=O)O (H-VESSK-OH),0
9,CC(C)[C@H](N)C(=O)N[C@@H](CCCCN)C(=O)N[C@@H](Cc1c[nH]c2ccccc12)C(=O)N[C@@H](C)C(=O)N[C@@H](C)C(=O)O (H-VKWAA-OH),1.71
10,C[C@H](NC(=O)[C@H](C)NC(=O)[C@H](CCC(=O)O)NC(=O)[C@@H](N)Cc1ccccc1)C(=O)N[C@@H](CCCCN)C(=O)O (H-FEAAK-OH),0.3
11,CC(C)[C@H](N)C(=O)N[C@@H](C)C(=O)N[C@@H](C)C(=O)N[C@@H](Cc1c[nH]c2ccccc12)C(=O)N[C@@H](CCCCN)C(=O)O (H-VAAWK-OH),0.23
12,CC(C)[C@H](N)C(=O)N[C@@H](CCC(=O)O)C(=O)N[C@@H](C)C(=O)N[C@@H](CO)C(=O)N[C@@H](CCCCN)C(=O)O (H-VEASK-OH),0.2
13,CC(C)C[C@H](NC(=O)[C@H](CCC(=O)O)NC(=O)[C@@H](N)C(C)C)C(=O)N[C@@H](C)C(=O)N[C@@H](CCCCN)C(=O)O (H-VELAK-OH),0.59
14,CC(C)[C@H](N)C(=O)N[C@@H](CCC(=O)O)C(=O)N[C@@H](C)C(=O)N[C@@H](C)C(=O)N1CCC[C@H]1C(=O)O (H-VEAAP-OH),0.18
15,CC(C)[C@H](N)C(=O)N[C@@H](CCCCN)C(=O)N[C@@H](C)C(=O)N[C@@H](C)C(=O)N[C@@H](CCCCN)C(=O)O (H-VKAAK-OH),0.11
16,O=C(CNC(=O)[C@@H]1CCCN1)N[C@@H](Cc1ccccc1)C(=O)N[C@@H](CO)C(=O)N1CCC[C@H]1C(=O)O (H-PGFSP-OH),0.9
17,CC(C)[C@H](N)C(=O)N[C@@H](CCC(=O)O)C(=O)N[C@@H](Cc1c[nH]c2ccccc12)C(=O)N[C@H](C(=O)N[C@@H](CCCCN)C(=O)O)C(C)C (H-VEWVK-OH),1.71
18,CC(C)[C@H](N)C(=O)N[C@@H](CCC(=O)O)C(=O)N[C@@H](Cc1c[nH]cn1)C(=O)N[C@@H](C)C(=O)N[C@@H](CCCCN)C(=O)O (H-VEHAK-OH),1.53
19,C[C@H](N)C(=O)N[C@@H](C)C(=O)N[C@@H](Cc1ccc(O)cc1)C(=O)N[C@@H](C)C(=O)N[C@@H](C)C(=O)O,0.46
20,CC(C)[C@H](N)C(=O)N[C@@H](CCC(=O)O)C(=O)N[C@@H](CO)C(=O)N[C@@H](C)C(=O)N[C@@H](CCCCN)C(=O)O (H-VESAK-OH),0.28
21,CC(C)[C@H](N)C(=O)N[C@@H](CCC(=O)O)C(=O)NCC(=O)NCC(=O)N[C@@H](CCCCN)C(=O)O (H-VEGGK-OH),-1
22,CC(C)C[C@H](N)C(=O)N[C@@H](CCC(=O)O)C(=O)N[C@@H](C)C(=O)N[C@@H](C)C(=O)N[C@@H](CCCCN)C(=O)O (H-LEAAK-OH),0.4
23,C[C@H](N)C(=O)N[C@@H](C)C(=O)N[C@@H](C)C(=O)N[C@@H](C)C(=O)N[C@@H](C)C(=O)O,-0.1
24,CC(C)[C@H](N)C(=O)N[C@@H](CCCCN)C(=O)N[C@@H](Cc1c[nH]c2ccccc12)C(=O)N[C@@H](C)C(=O)N1CCC[C@H]1C(=O)O (H-VKWAP-OH),2.35
25,CC(C)[C@H](N)C(=O)N[C@@H](Cc1c[nH]c2ccccc12)C(=O)N[C@@H](C)C(=O)N[C@@H](C)C(=O)N[C@@H](CCCCN)C(=O)O (H-VWAAK-OH),0.04
26,CC(C)[C@H](N)C(=O)N[C@@H](C)C(=O)N[C@@H](C)C(=O)N[C@@H](C)C(=O)N[C@@H](CCCCN)C(=O)O (H-VAAAK-OH),-0.1
27,C[C@H](NC(=O)[C@H](C)NC(=O)[C@H](CCC(=O)O)NC(=O)CN)C(=O)N[C@@H](CCCCN)C(=O)O (H-GEAAK-OH),-0.52
28,CC(C)[C@H](N)C(=O)N[C@@H](C)C(=O)N[C@@H](Cc1c[nH]c2ccccc12)C(=O)N[C@@H](C)C(=O)N[C@@H](C)C(=O)O (H-VAWAA-OH),1.43
29,C[C@H](NC(=O)[C@H](Cc1c[nH]c2ccccc12)NC(=O)[C@H](CCCCN)NC(=O)[C@@H](N)CCCN=C(N)N)C(=O)N1CCC[C@H]1C(=O)O (H-RKWAP-OH),1.98
